Results from patent US20220218627A1 (priority 2019, published 2022).

Tests used:
[1] = test system: Cluster headache patients; conditions: human, in vivo
[2] = test system: major depressive disorder; conditions: in vivo; cited from earlier work
acute traumatic pain = conditions: in vivo; cited from earlier work
[3] = test system: pediatric procedural pain; conditions: in vivo; cited from earlier work
[4] = test system: migraine or Cluster headache patients; conditions: in vivo, iv; cited from earlier work
[5] = in vivo; cited from earlier work

CNC1(c2ccccc2Cl)CCCCC1=O (stereo not drawn) [ketamine, 2-(2-chlorophenyl)-2-(methylamino)cyclohexanone]
Case 1: number of sprays after which patient reported feeling better [1]: 2-3 sprays | Case 1: side effects (dysphoria, out-of-body) [1]: no side effects | Case 2: cluster headache episode frequency over about a year [1]: beginning to get less frequent | Case 3: long-term course of cluster headache episodes [1]: only had one short cluster headache episode in the last three to four years | Cases 1-3: change from initial baseline on 0 to 10 Visual Analogue Scale (VAS) [1]: above 65% | Cases 1-3: dysphoria or nausea [1]: Increased dysphoria or nausea was not noted | Cases 1-3: out-of-body experiences or hallucinations [1]: No out-off body experiences, or hallucinations were observed | Case 1: outcome of IV treatment on cluster headaches ([1]; iv): complete cessation of the cluster headaches in three days | Case 2: change in cluster headache frequency ([1]; iv): from 5 episodes per day to only one cluster headache in the next week | Case 3: shortening of the duration of the cluster episode ([1]; iv): greater than two-thirds | effect on depressive symptoms [2]: rapid improvement of the depressive symptoms | serious adverse effects [2]: No serious adverse effects occurred | efficacy in pain treatment compared to morphine IV or IM (acute traumatic pain): equal efficient in pain treatment | hallucinations or out-of-body experience (acute traumatic pain): No patients complained of hallucinations or out of-body experience | side effects (acute traumatic pain): mainly dizziness | time to onset (acute traumatic pain): approx. 15 min | onset of analgesia [3]: rapid onset of analgesia | side effects [3]: only slight sedation | patients complaining of spaciness, fearfulness, jitteriness or lack of personal control [4]: approximately 43% | patients experiencing nausea at some point during treatment [4]: 3.2% | terminal plasma half-life [5]: 2 to 3 h | time to peak plasma concentrations [5]: 10 to 15 min

CCN(CC)CC(=O)Nc1c(C)cccc1C [lidocaine]
Case 3: success in shutting the cluster episode down ([1]; iv): only partial success

CCCC(CCC)C(=O)O [Depacon]
Case 3: success in shutting the cluster episode down ([1]; iv): only partial success
